Literature values as cited in US11478445B2, “Method for treating acute myeloid leukemia” (Bionomics Limited, priority 2017, dated 2022).

Columns and labels:
KG1 cells [1] = settings: Petit et al. 2008, Madlambayan et al. 2010; cited from earlier work
KG1 cells [2] = settings: Petit et al. 2008; cited from earlier work

| Compound | total ROS levels (KG1 cells [1]) | cell cycle (KG1 cells [2]) |
| --- | --- | --- |
| COc1ccc(/C=C\c2cc(OC)c(OC)c(OC)c2)cc1OP(=O)(O)O [combretastatin-A4-P] | increase in total ROS levels | induces G2/M cell cycle arrest |
| COc1ccc(/C=C\c2cc(OC)c(OC)c(OC)c2)c(O)c1O [OXi4500, combretastatin-A1] | increase in total ROS levels | – |
